Results from US7507730B2, “Substituted pyrazolo[1,5-a]pyrimidines as potassium channel activators” (Bristol-Myers Squibb Company, priority 2005, dated 2009).

Target: Kv1.5 (Homo sapiens, UniProt P22460)
Assay: Kv1.5 inhibition assay (IKur inhibitor assay per cited references)
Type: cell-based
Conditions: for Kv1.5% inhibition / inhibition at 0.3 µM: at 0.3 μM; for IC50: read-out: Kv1.5 IC50
From the text: Assays to determine the degree of activity of a compound as an IKur inhibitor are well known in the art and are described in references such as J. Gen. Physiol. Apr.; 101 (4):513-43, and Br. J. Pharmacol. 1995 May; 115(2):267-74.

Sequence of Kv1.5 (P22460 whole entry): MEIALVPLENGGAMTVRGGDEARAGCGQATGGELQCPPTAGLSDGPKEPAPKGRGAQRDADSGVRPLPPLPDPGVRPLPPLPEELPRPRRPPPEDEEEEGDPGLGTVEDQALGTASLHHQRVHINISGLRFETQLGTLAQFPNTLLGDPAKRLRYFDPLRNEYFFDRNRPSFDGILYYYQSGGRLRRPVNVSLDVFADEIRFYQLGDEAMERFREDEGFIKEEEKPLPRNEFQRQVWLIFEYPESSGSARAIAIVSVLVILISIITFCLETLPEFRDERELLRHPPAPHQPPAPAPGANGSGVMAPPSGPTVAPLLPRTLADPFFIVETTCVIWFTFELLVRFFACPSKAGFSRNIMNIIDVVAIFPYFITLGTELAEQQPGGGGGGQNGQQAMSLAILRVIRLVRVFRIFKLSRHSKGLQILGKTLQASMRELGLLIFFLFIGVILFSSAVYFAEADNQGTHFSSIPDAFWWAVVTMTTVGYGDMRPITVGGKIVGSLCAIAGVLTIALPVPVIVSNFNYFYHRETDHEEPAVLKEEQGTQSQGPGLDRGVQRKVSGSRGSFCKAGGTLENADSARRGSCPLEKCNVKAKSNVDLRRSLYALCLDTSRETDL

Compound	Kv1.5% inhibition	inhibition at 0.3 µM	IC50
CCCCS(=O)(=O)C1=C(C)Nc2cc(C)nn2C1c1ccc(Cl)c(Cl)c1 (single isomer, unassigned) [Example 18 Isomer 1, 6-(Butylsulfonyl)-7-(3,4-dichlorophenyl)-2,5-dimethyl-4,7-dihydropyrazolo[1,5-a]pyrimidine]	84.6%	–	–
CCN(C(=O)C1=C(C)Nc2cc(C)nn2C1c1ccc(Cl)c(Cl)c1)S(=O)(=O)c1c(C)noc1C (single isomer, unassigned) [Example 97 Isomer 1, 7-(3,4-Dichlorophenyl)-N-(3,5-dimethylisoxazol-4-ylsulfonyl)-N-ethyl-2,5-dimethyl-4,7-dihydropyrazolo[1,5-a]pyrimidine-6-carboxamide]	91%	–	–
CC1=C(S(=O)(=O)c2ccc(Cl)cc2)C(c2cncnc2)n2nc(C(F)(F)F)cc2N1 (single isomer, unassigned) [Example 50 Isomer 1, 6-(4-Chlorophenylsulfonyl)-5-methyl-7-(pyrimidin-5-yl)-2-(trifluoromethyl)-4,7-dihydropyrazolo[1,5-a]pyrimidine]	–	15.1%	–
CC1=C(S(=O)(=O)c2ccccc2)C(c2ccc(N3CCCC3)cc2)n2nc(C(F)(F)F)cc2N1 (racemic) [Example 21, 5-Methyl-6-(phenylsulfonyl)-7-(4-(pyrrolidin-1-yl)phenyl)-2-(trifluoromethyl)-4,7-dihydropyrazolo[1,5-a]pyrimidine]	–	11.1%	–
CC1=C(S(=O)(=O)N2CCOCC2)C(c2ccc(Cl)c(Cl)c2)n2nc(C(F)(F)F)cc2N1 (single isomer, unassigned) [Example 66 Isomer 2, 7-(3,4-Dichlorophenyl)-5-methyl-6-(morpholinosulfonyl)-2-(trifluoromethyl)-4,7-dihydropyrazolo[1,5-a]pyrimidine]	49%	–	–
CC1=C(S(=O)(=O)c2ccc(Cl)cc2)C(c2ccc(Cl)c(Cl)c2)n2nccc2N1 (single isomer, unassigned) [Example 2 Isomer 2, 6-(4-Chlorophenylsulfonyl)-7-(3,4-dichlorophenyl)-5-methyl-4,7-dihydropyrazolo[1,5-a]pyrimidine]	–	–	37 nM
CC1=C(C(=O)N(C)S(=O)(=O)c2ccc(F)cc2)C(c2ccc(Cl)c(Cl)c2)n2nc(C)cc2N1 (single isomer, unassigned) [Example 80 Isomer 2, 7-(3,4-Dichlorophenyl)-N-(4-fluorophenylsulfonyl)-N,2,5-trimethyl-4,7-dihydropyrazolo[1,5-a]pyrimidine-6-carboxamide]	85%	–	–
CCCCS(=O)(=O)C1=C(C)Nc2cc(C(F)(F)F)nn2C1c1ccc(Cl)cc1 (single isomer, unassigned) [Example 30 Isomer 2, 6-(Butylsulfonyl)-7-(4-chlorophenyl)-5-methyl-2-(trifluoromethyl)-4,7-dihydropyrazolo[1,5-a]pyrimidine]	–	77%	–
CCCCS(=O)(=O)N(C)C(=O)C1=C(C)Nc2cc(C(F)(F)F)nn2C1c1ccc(Cl)c(Cl)c1 (racemic) [Example 86, N-(Butylsulfonyl)-7-(3,4-dichlorophenyl)-N,5-dimethyl-2-(trifluoromethyl)-4,7-dihydropyrazolo[1,5-a]pyrimidine-6-carboxamide]	–	–	242 nM
CC1=C(C(=O)N(C)S(=O)(=O)c2c(C)noc2C)C(c2ccc(Cl)c(Cl)c2)n2nc(C(F)(F)F)cc2N1 (single isomer, unassigned) [Example 95 Isomer 2, 7-(3,4-Dichlorophenyl)-N-(3,5-dimethylisoxazol-4-ylsulfonyl)-N,5-dimethyl-2-(trifluoromethyl)-4,7-dihydropyrazolo[1,5-a]pyrimidine-6-carboxamide]	71%	–	–
COc1ccc(S(=O)(=O)C2=C(C)Nc3cc(C)nn3C2c2ccc(Cl)c(Cl)c2)cc1 (single isomer, unassigned) [Example 8 Isomer 1, 7-(3,4-Dichlorophenyl)-6-(4-methoxyphenylsulfonyl)-2,5-dimethyl-4,7-dihydropyrazolo[1,5-a]pyrimidine]	–	–	23 nM
CC1=C(S(=O)(=O)c2ccccc2)C(c2ccc(Cl)c(Cl)c2)n2nc(C)cc2N1 (single isomer, unassigned) [Example 3 Isomer 2, 7-(3,4-Dichlorophenyl)-2,5-dimethyl-6-(phenylsulfonyl)-4,7-dihydropyrazolo[1,5-a]pyrimidine]	–	–	293 nM
CC1=C(C(=O)N(C)S(=O)(=O)c2c(C)noc2C)C(c2ccc(Cl)c(Cl)c2)n2nc(C)cc2N1 (single isomer, unassigned) [Example 94 Isomer 1, 7-(3,4-Dichlorophenyl)-N-(3,5-dimethylisoxazol-4-ylsulfonyl)-N,2,5-trimethyl-4,7-dihydropyrazolo[1,5-a]pyrimidine-6-carboxamide]	–	80%	–
CC1=C(C(=O)N(C)S(=O)(=O)C2CC2)C(c2ccc(Cl)c(Cl)c2)n2nc(C(F)(F)F)cc2N1 (single isomer, unassigned) [Example 98 Isomer 2, N-(Cyclopropylsulfonyl)-7-(3,4-dichlorophenyl)-N,5-dimethyl-2-(trifluoromethyl)-4,7-dihydropyrazolo[1,5-a]pyrimidine-6-carboxamide]	–	–	200 nM
CC1=C(S(=O)(=O)NC2CCCCC2)C(c2ccc(Cl)cc2)n2nc(C(F)(F)F)cc2N1 (racemic) [Example 52, 7-(4-Chlorophenyl)-N-cyclohexyl-5-methyl-2-(trifluoromethyl)-4,7-dihydropyrazolo[1,5-a]pyrimidine-6-sulfonamide]	–	49.6%	–
CC1=C(S(=O)(=O)N2CCCCC2)C(c2ccc(Cl)c(Cl)c2)n2nc(C(F)(F)F)cc2N1 (single isomer, unassigned) [Example 65 Isomer 2, 7-(3,4-Dichlorophenyl)-5-methyl-6-(piperidin-1-ylsulfonyl)-2-(trifluoromethyl)-4,7-dihydropyrazolo[1,5-a]pyrimidine]	78%	–	–
